{"source": "paper PMC5218480", "about": "(PLoS ONE, 2017)", "test_system": "MV-4-11 cells", "assay": "Gene expression microarray analysis (Affymetrix PrimeView) and GSEA", "format": "cell-based, human", "set-up": "RFU PODN (11730768_x_at) / Fold change /veh PODN (11730768_x_at) / RFU LINC00158 (11744669_a_at) / Fold change /veh LINC00158 (11744669_a_at) / RFU DUSP10 (11751237_a_at) / Fold change /veh DUSP10 (11751237_a_at) / RFU ID3 (11757404_x_at) / Fold change /veh ID3 (11757404_x_at) / RFU PLEKHG5 (11737974_s_at) / Fold change /veh PLEKHG5 (11737974_s_at) / RFU LRRC4B (11730491_at) / Fold change /veh LRRC4B (11730491_at) / RFU GIMAP4 (11747438_a_at) / Fold change /veh GIMAP4 (11747438_a_at) / RFU KRT8 (11758183_x_at) / Fold change /veh KRT8 (11758183_x_at) / RFU CNN1 (11734310_a_at) / Fold change /veh CNN1 (11734310_a_at) / RFU VPS37D (11726825_at) / Fold change /veh VPS37D (11726825_at) / RFU C10orf10 (11716522_x_at) / Fold change /veh C10orf10 (11716522_x_at) / RFU KIR2DL2 /// KIR2DL4 /// KIR2DL5A /// KIR2DL5B /// KIR2DS1 /// KIR2DS2 /// KIR2DS3 /// KIR2DS4 /// KIR3DL3 /// KIR3DL3 /// KIR3DS1 (11738374_at) / Fold change /veh KIR2DL2 /// KIR2DL4 /// KIR2DL5A /// KIR2DL5B /// KIR2DS1 /// KIR2DS2 /// KIR2DS3 /// KIR2DS4 /// KIR3DL3 /// KIR3DL3 /// KIR3DS1 (11738374_at) / RFU C1QL1 (11718748_at) / Fold change /veh C1QL1 (11718748_at) / RFU TMPRSS4 (11747572_a_at) / Fold change /veh TMPRSS4 (11747572_a_at) / RFU HAMP (11756126_x_at) / Fold change /veh HAMP (11756126_x_at) / RFU RNFT2 (11725882_a_at) / Fold change /veh RNFT2 (11725882_a_at) / RFU NR4A2 (11747474_a_at) / Fold change /veh NR4A2 (11747474_a_at) / RFU ABCC12 (11746883_a_at) / Fold change /veh ABCC12 (11746883_a_at) / RFU TMEM136 (11760407_x_at) / Fold change /veh TMEM136 (11760407_x_at) / RFU CLDN22 /// WWC2 (11732394_at) / Fold change /veh CLDN22 /// WWC2 (11732394_at) / RFU HLA-DPB1 (11760878_x_at) / Fold change /veh HLA-DPB1 (11760878_x_at) / RFU SPINT1 (11716480_a_at) / Fold change /veh SPINT1 (11716480_a_at) / RFU GAP43 (11754022_s_at) / Fold change /veh GAP43 (11754022_s_at) / RFU A4GNT (11735810_at) / Fold change /veh A4GNT (11735810_at) / RFU PRB3 (11715151_x_at) / Fold change /veh PRB3 (11715151_x_at) / RFU TUBB4B (11761932_at) / Fold change /veh TUBB4B (11761932_at) / RFU CAPN14 (11732068_a_at) / Fold change /veh CAPN14 (11732068_a_at) / RFU TMCC2 (11721928_a_at) / Fold change /veh TMCC2 (11721928_a_at) / RFU IRGQ (11745062_a_at) / Fold change /veh IRGQ (11745062_a_at) / RFU FAM174B (11720279_a_at) / Fold change /veh FAM174B (11720279_a_at) / RFU TMPRSS4 (11748680_a_at) / Fold change /veh TMPRSS4 (11748680_a_at) / RFU FAM212B (11763350_a_at) / Fold change /veh FAM212B (11763350_a_at) / RFU PLEKHG5 (11743358_a_at) / Fold change /veh PLEKHG5 (11743358_a_at) / RFU ZSCAN30 (11745921_a_at) / Fold change /veh ZSCAN30 (11745921_a_at) / RFU CMKLR1 (11741424_a_at) / Fold change /veh CMKLR1 (11741424_a_at) / RFU LOC101060620 /// MAPK8IP1 (11723275_at) / Fold change /veh LOC101060620 /// MAPK8IP1 (11723275_at) / RFU SPTSSB (11747773_x_at) / Fold change /veh SPTSSB (11747773_x_at) / RFU PRSS12 (11739890_at) / Fold change /veh PRSS12 (11739890_at) / RFU BIN1 (11741810_x_at) / Fold change /veh BIN1 (11741810_x_at) / RFU WNT11 (11732464_a_at) / Fold change /veh WNT11 (11732464_a_at) / RFU C10orf10 (11716521_a_at) / Fold change /veh C10orf10 (11716521_a_at) / RFU C5orf56 (11738089_at) / Fold change /veh C5orf56 (11738089_at) / RFU CYB561 (11721691_x_at) / Fold change /veh CYB561 (11721691_x_at) / RFU ANKRD19P (11752326_a_at) / Fold change /veh ANKRD19P (11752326_a_at) / RFU OR2T12 /// OR2T33 /// OR2T8 (11738714_s_at) / Fold change /veh OR2T12 /// OR2T33 /// OR2T8 (11738714_s_at) / RFU VCAN (11748164_a_at) / Fold change /veh VCAN (11748164_a_at) / RFU JSRP1 (11732532_at) / Fold change /veh JSRP1 (11732532_at) / RFU KRTAP10-11 (11738290_x_at) / Fold change /veh KRTAP10-11 (11738290_x_at) / RFU MYO3A (11730013_a_at) / Fold change /veh MYO3A (11730013_a_at) / RFU EBF3 (11725865_a_at) / Fold change /veh EBF3 (11725865_a_at) / RFU CAMK2N1 (11719241_x_at) / Fold change /veh CAMK2N1 (11719241_x_at) / RFU C5orf56 (11738088_a_at) / Fold change /veh C5orf56 (11738088_a_at) / RFU OLFML3 (11715873_a_at) / Fold change /veh OLFML3 (11715873_a_at) / RFU LOC100653217 /// NTM (11731650_a_at) / Fold change /veh LOC100653217 /// NTM (11731650_a_at) / RFU MAPK11 (11762145_a_at) / Fold change /veh MAPK11 (11762145_a_at) / RFU FIZ1 (11724087_x_at) / Fold change /veh FIZ1 (11724087_x_at) / RFU OASL (11726364_x_at) / Fold change /veh OASL (11726364_x_at) / RFU SOX15 (11748057_x_at) / Fold change /veh SOX15 (11748057_x_at) / RFU CD79A (11719716_a_at) / Fold change /veh CD79A (11719716_a_at) / RFU HIST1H1D (11736915_at) / Fold change /veh HIST1H1D (11736915_at) / RFU CASKIN2 (11723855_a_at) / Fold change /veh CASKIN2 (11723855_a_at) / RFU LOC730098 (11760151_x_at) / Fold change /veh LOC730098 (11760151_x_at) / RFU OR4N2 (11742367_at) / Fold change /veh OR4N2 (11742367_at) / RFU PRRT2 (11749266_a_at) / Fold change /veh PRRT2 (11749266_a_at) / RFU SNX32 (11753110_a_at) / Fold change /veh SNX32 (11753110_a_at) / RFU CDHR5 (11726645_a_at) / Fold change /veh CDHR5 (11726645_a_at) / RFU RCAN1 (11760418_a_at) / Fold change /veh RCAN1 (11760418_a_at) / RFU FAM167A (11723789_a_at) / Fold change /veh FAM167A (11723789_a_at) / RFU FAM26E (11764081_at) / Fold change /veh FAM26E (11764081_at) / RFU ISYNA1 (11749810_s_at) / Fold change /veh ISYNA1 (11749810_s_at) / RFU ACY1 (11761880_at) / Fold change /veh ACY1 (11761880_at) / RFU 11764098_at / Fold change /veh 11764098_at / RFU SAMD14 (11745864_x_at) / Fold change /veh SAMD14 (11745864_x_at) / RFU NPB (11741838_a_at) / Fold change /veh NPB (11741838_a_at) / RFU TMPRSS6 (11731388_a_at) / Fold change /veh TMPRSS6 (11731388_a_at) / RFU KRTAP10-2 (11738614_at) / Fold change /veh KRTAP10-2 (11738614_at) / RFU ARHGAP8 /// PRR5-ARHGAP8 (11727945_x_at) / Fold change /veh ARHGAP8 /// PRR5-ARHGAP8 (11727945_x_at) / RFU KRTAP5-7 /// NADSYN1 (11734609_at) / Fold change /veh KRTAP5-7 /// NADSYN1 (11734609_at) / RFU RASL12 (11751679_a_at) / Fold change /veh RASL12 (11751679_a_at) / RFU CDKN2B (11736163_a_at) / Fold change /veh CDKN2B (11736163_a_at) / RFU PRF1 (11729649_at) / Fold change /veh PRF1 (11729649_at) / RFU, ZNF638 /// ZNF638-IT1 / Fold change vs veh, ZNF638 /// ZNF638-IT1 / RFU, PANK3 / Fold change vs veh, PANK3 / RFU, SH3YL1 / Fold change vs veh, SH3YL1 / RFU, ZEB2 / Fold change vs veh, ZEB2 / RFU, NRIP1 / Fold change vs veh, NRIP1 / RFU, PTTG1IP / Fold change vs veh, PTTG1IP / RFU, CAPN2 / Fold change vs veh, CAPN2 / RFU, MED14 / Fold change vs veh, MED14 / RFU, SNORA58 / Fold change vs veh, SNORA58 / RFU, C1orf63 / Fold change vs veh, C1orf63 / RFU, LRRFIP1 / Fold change vs veh, LRRFIP1 / RFU, NDUFAF7 / Fold change vs veh, NDUFAF7 / RFU, SLC12A2 / Fold change vs veh, SLC12A2 / RFU, IBTK / Fold change vs veh, IBTK / RFU, ESF1 / Fold change vs veh, ESF1 / Fold change vs veh, TMEM50B / RFU, TAOK1 / Fold change vs veh, TAOK1 / RFU, ACBD3 / Fold change vs veh, ACBD3 / RFU, TMA16 / Fold change vs veh, TMA16 / RFU, RWDD3 / Fold change vs veh, RWDD3 / RFU, BCAT1 / Fold change vs veh, BCAT1 / RFU, EDEM3 / Fold change vs veh, EDEM3 / RFU, TMEM33 / Fold change vs veh, TMEM33 / RFU, WDR75 / Fold change vs veh, WDR75 / RFU, AHCTF1 / Fold change vs veh, AHCTF1 / RFU, TFRC / Fold change vs veh, TFRC / RFU, ZDHHC17 / Fold change vs veh, ZDHHC17 / RFU, NOM1 / Fold change vs veh, NOM1 / RFU, ARL8B / Fold change vs veh, ARL8B / RFU, ZBTB11 / Fold change vs veh, ZBTB11 / RFU, TAMM41 / Fold change vs veh, TAMM41 / RFU, KIAA1704 /// LOC100996395 / Fold change vs veh, KIAA1704 /// LOC100996395 / RFU, ING1 / Fold change vs veh, ING1 / RFU, TRMT61B / Fold change vs veh, TRMT61B / RFU, FUBP3 / Fold change vs veh, FUBP3 / RFU, TP53 / Fold change vs veh, TP53 / RFU, TNKS2 / Fold change vs veh, TNKS2 / RFU, ZFP14 / Fold change vs veh, ZFP14 / RFU, ACTR2 / Fold change vs veh, ACTR2 / RFU, PPP3R1 / Fold change vs veh, PPP3R1 / RFU, PIK3R1 / Fold change vs veh, PIK3R1 / RFU, HNRNPA1 / Fold change vs veh, HNRNPA1 / RFU, RNF170 / Fold change vs veh, RNF170 / RFU, ZNF28 / Fold change vs veh, ZNF28 / RFU, RNGTT / Fold change vs veh, RNGTT / RFU, OGT / Fold change vs veh, OGT / RFU, BRD1 / Fold change vs veh, BRD1 / RFU, MARS / Fold change vs veh, MARS / RFU, ZNF655 / Fold change vs veh, ZNF655 / RFU, FAHD1 / Fold change vs veh, FAHD1 / RFU, BDP1 / Fold change vs veh, BDP1 / RFU, LRRCC1 / Fold change vs veh, LRRCC1 / RFU, ARID1A / Fold change vs veh, ARID1A / RFU, ZNF146 / Fold change vs veh, ZNF146 / RFU, ZNF330 / Fold change vs veh, ZNF330 / RFU, GPN3 / Fold change vs veh, GPN3 / RFU, C9orf123 / Fold change vs veh, C9orf123 / RFU, N4BP2L2 / Fold change vs veh, N4BP2L2 / RFU, ARFIP1 / Fold change vs veh, ARFIP1 / RFU, FAM179B / Fold change vs veh, FAM179B / RFU, BCL10 / Fold change vs veh, BCL10 / RFU, UHRF1BP1L / Fold change vs veh, UHRF1BP1L / RFU, BET1 / Fold change vs veh, BET1 / RFU, CNOT2 / Fold change vs veh, CNOT2 / RFU, ZNF268 / Fold change vs veh, ZNF268 / Fold change vs veh, ZNF507 / RFU, DGCR2 / Fold change vs veh, DGCR2 / RFU, WDSUB1 / Fold change vs veh, WDSUB1 / Fold change vs veh, HSP90B1 /// MIR3652 / RFU, ADSS / Fold change vs veh, ADSS / RFU, GK / Fold change vs veh, GK / RFU, ZNF148 / Fold change vs veh, ZNF148 / RFU, TAF9 / Fold change vs veh, TAF9 / RFU, SLC1A5 / Fold change vs veh, SLC1A5 / RFU, SLMO2 / Fold change vs veh, SLMO2 / RFU, ABCC4 / Fold change vs veh, ABCC4 / RFU, LOC101060439 /// RAP1B / Fold change vs veh, LOC101060439 /// RAP1B / RFU, RFX7 / Fold change vs veh, RFX7 / RFU, GTPBP10 / Fold change vs veh, GTPBP10 / RFU, CNEP1R1 / Fold change vs veh, CNEP1R1 / RFU, BIVM-ERCC5 /// ERCC5 / Fold change vs veh, BIVM-ERCC5 /// ERCC5 / RFU, ILF3 / Fold change vs veh, ILF3 / RFU 11762660_at / Fold change /veh 11762660_at / RFU VCAN (11757783_s_at) / Fold change /veh VCAN (11757783_s_at) / RFU DDX43 (11728927_at) / Fold change /veh DDX43 (11728927_at) / RFU KRT8 (11758188_x_at) / Fold change /veh KRT8 (11758188_x_at) / RFU NKD1 (11759106_at) / Fold change /veh NKD1 (11759106_at) / RFU SRD5A1 (11742802_a_at) / Fold change /veh SRD5A1 (11742802_a_at) / RFU TPSAB1 /// TPSB2 (11721975_s_at) / Fold change /veh TPSAB1 /// TPSB2 (11721975_s_at) / RFU GSTM3 (11746129_a_at) / Fold change /veh GSTM3 (11746129_a_at) / RFU IL23R (11737362_x_at) / Fold change /veh IL23R (11737362_x_at) / RFU TMEM51 (11727254_a_at) / Fold change /veh TMEM51 (11727254_a_at) / RFU PIWIL2 (11732686_x_at) / Fold change /veh PIWIL2 (11732686_x_at) / RFU ORM1 (11744905_x_at) / Fold change /veh ORM1 (11744905_x_at) / RFU CCDC152 (11743942_at) / Fold change /veh CCDC152 (11743942_at) / RFU ECM1 (11717891_a_at) / Fold change /veh ECM1 (11717891_a_at) / RFU IL23R (11748794_a_at) / Fold change /veh IL23R (11748794_a_at) / RFU TNFAIP8L3 (11732012_x_at) / Fold change /veh TNFAIP8L3 (11732012_x_at) / RFU MBOAT4 (11741988_at) / Fold change /veh MBOAT4 (11741988_at) / RFU 11764193_at / Fold change /veh 11764193_at / RFU TMEM53 (11763286_at) / Fold change /veh TMEM53 (11763286_at) / RFU MAGEB2 (11727129_at) / Fold change /veh MAGEB2 (11727129_at) / RFU TMEM200A (11744735_a_at) / Fold change /veh TMEM200A (11744735_a_at) / RFU CCDC152 (11751479_a_at) / Fold change /veh CCDC152 (11751479_a_at) / RFU FAM211A (11726209_a_at) / Fold change /veh FAM211A (11726209_a_at) / RFU RGS16 (11746705_a_at) / Fold change /veh RGS16 (11746705_a_at) / RFU VCAN (11755009_s_at) / Fold change /veh VCAN (11755009_s_at) / RFU RHOB (11743442_s_at) / Fold change /veh RHOB (11743442_s_at) / RFU RGS16 (11720943_a_at) / Fold change /veh RGS16 (11720943_a_at) / RFU RGS16 (11720944_at) / Fold change /veh RGS16 (11720944_at) / RFU, VPS4B / Fold change vs veh, VPS4B / RFU, CREB1 / Fold change vs veh, CREB1 / RFU, DNAJC13 / Fold change vs veh, DNAJC13 / RFU, GNAQ / Fold change vs veh, GNAQ / RFU, CDK5R1 / Fold change vs veh, CDK5R1 / RFU, ZRANB3 / Fold change vs veh, ZRANB3 / RFU, CUL4A / Fold change vs veh, CUL4A / RFU, CCNY / Fold change vs veh, CCNY / RFU, UFL1 / Fold change vs veh, UFL1 / RFU, COG3 / Fold change vs veh, COG3 / RFU, DIAPH2 / Fold change vs veh, DIAPH2 / RFU, SKA2 / Fold change vs veh, SKA2 / RFU, AFF3 / Fold change vs veh, AFF3 / RFU, LMF1 / Fold change vs veh, LMF1 / RFU, IPO11 / Fold change vs veh, IPO11 / RFU, DFFB / Fold change vs veh, DFFB / RFU, FOXP1 / Fold change vs veh, FOXP1 / RFU, CARD8 / Fold change vs veh, CARD8 / RFU, STRN3 / Fold change vs veh, STRN3 / RFU, ADK / Fold change vs veh, ADK / RFU, RASSF2 / Fold change vs veh, RASSF2 / RFU, WIPF1 / Fold change vs veh, WIPF1 / RFU, LARP1B / Fold change vs veh, LARP1B / RFU, RASA1 / Fold change vs veh, RASA1 / RFU, RB1 / Fold change vs veh, RB1 / RFU, PPFIA1 / Fold change vs veh, PPFIA1 / RFU, MAT2A / Fold change vs veh, MAT2A / RFU, CCT5 / Fold change vs veh, CCT5 / RFU, WDR92 / Fold change vs veh, WDR92 / RFU, CUX1 / Fold change vs veh, CUX1 / RFU, TTC7A / Fold change vs veh, TTC7A / RFU, TMEM135 / Fold change vs veh, TMEM135 / RFU, DEPTOR / Fold change vs veh, DEPTOR / RFU, CPM / Fold change vs veh, CPM / RFU, DNAJB6 / Fold change vs veh, DNAJB6 / RFU, CACNA2D3 / Fold change vs veh, CACNA2D3 / RFU, DTX4 / Fold change vs veh, DTX4 / RFU, TFCP2 / Fold change vs veh, TFCP2 / RFU, GMCL1 /// GMCL1P1 / Fold change vs veh, GMCL1 /// GMCL1P1 / RFU, AEBP2 / Fold change vs veh, AEBP2 / RFU, SNHG1 /// SNORD22 /// SNORD25 /// SNORD26 /// SNORD27 /// SNORD28 /// SNORD29 /// SNORD31 / Fold change vs veh, SNHG1 /// SNORD22 /// SNORD25 /// SNORD26 /// SNORD27 /// SNORD28 /// SNORD29 /// SNORD31 / Fold change (Aza/veh), C12orf56 (ProbeSet 11735607_a_at) / Fold change (ACY-1035/veh), C12orf56 (ProbeSet 11735607_a_at) / Fold change (Aza/veh), FGFR1OP (ProbeSet 11751329_s_at) / Fold change (ACY-1035/veh), FGFR1OP (ProbeSet 11751329_s_at) / Fold change (Aza/veh), VPS36 (ProbeSet 11739960_a_at) / Fold change (ACY-1035/veh), VPS36 (ProbeSet 11739960_a_at) / RFU SYPL1 (11715823_x_at) / Fold change /veh SYPL1 (11715823_x_at) / RFU IGFBP7 (11715501_s_at) / Fold change /veh IGFBP7 (11715501_s_at) / RFU REEP3 (11722064_at) / Fold change /veh REEP3 (11722064_at) / RFU IGLL1 (11728026_x_at) / Fold change /veh IGLL1 (11728026_x_at): dose or concentration left out as unconfirmed", "details": "ProbeSet 11758440_s_at; LIST B"}
{"compound": "Nc1ncn([C@@H]2O[C@H](CO)[C@@H](O)[C@H]2O)c(=O)n1", "note": "[azacitidine]", "values": [{"measurement": "Fold change vs veh, RFX7", "value": 0.86}]}
